The values that follow come from patent publication US20240018108A1, “METHODS AND COMPOSITIONS FOR INHIBITION OF DIHYDROOROTATE DEHYDROGENASE” (OHIO STATE INNOVATION FOUNDATION, priority 2019, published 2024).

pIC50: −log10 of the molar value. Where only a bound is given, the exact number is not on record here.

One assay has as its target T1, h-DHODH (Homo sapiens, UniProt Q02127).
T1 construct: made in house
Description: DHODH enzymatic assay (DCIP reduction). Type of assay: biochemical. The following applies: recombinant human enzyme, 25° C., pH 8.0. How it is done: DHODH Enzymatic Assay: DHODH activity was determined at 25° C. following the reduction of 2,6-dichloroindophenol sodium salt (DCIP) at 600 nm (ε=18 800 M^−1 cm^−1) on a spectrophotometer. The reaction medium used contained 50 mM Tris-HCl, pH 8.0, 0.1% Triton X-100, 0.1 mM LDHO, 0.025 mM CoQ1, and 0.06 mM DCIP. The reaction was started by addition of the enzyme. The inhibitory potency of the compounds was evaluated by measuring the initial velocity of the reaction either in the absence or in the presence of the compounds at the indicated concentrations. The DHODH enzyme used was the recombinant human enzyme prepared as previously described (Helene Munier-Lehmann, et al., J. Med. Chem. 2015, 58:860-877).

In a further assay the test system is MOLM13 cell line. Description: MTS assay for cell growth/viability, MOLM13. Type of assay: cell-based. The following applies: Homo sapiens. The method, then:
MTS assay for cell growth/viability: Mitochondrial activity was measured to determine cell proliferation using an MTS assay ([…]). Metabolically active cells convert MTS tetrazolium salt into a purple formazan product that is soluble in tissue culture medium. The amount of formazan measured at 490 nm absorbance is proportional to the number of proliferating cells. […] Triplicate wells were set up for each condition. At 96 hours, the MTS reagent was added and after approximately 4 hours the plates were read in a spectrophotometer.
(§1) Biological Activity: Cell proliferation assays were carried out using the MTS assay described herein using two AML cell lines (i.e., MOLM13 and OCI-AML3) with varied genetic backgrounds. The assays were carried out in a blinded fashion.
(In general: Formazan colour is commonly taken as a measure of viable cells.)

Another assay has as its system OCI-AML3 cell line. Description: MTS assay for cell growth/viability, OCI-AML3. Type of assay: cell-based. The following applies: Homo sapiens, OCI-AML-3, 96 hours, Table 2 (one study). How it is done:
(§2) MTS assay for cell growth/viability: Mitochondrial activity was measured to determine cell proliferation using an MTS assay ([…]). Metabolically active cells convert MTS tetrazolium salt into a purple formazan product that is soluble in tissue culture medium. The amount of formazan measured at 490 nm absorbance is proportional to the number of proliferating cells. MTS assays in AML cell lines were carried out with 20K cells plated per well in 96-well plates with Cpd3 or brequinar in a dose series ranging from 0.0001 to 10 μM. Triplicate wells were set up for each condition. At 96 hours, the MTS reagent was added and after approximately 4 hours the plates were read in a spectrophotometer.
as §1

For assay [1], the system named is AML cell lines (MOLM13 and OCI-AML3). Description: MTS cell proliferation assay, AML cell lines. Type of assay: cell-based. The following applies: range over the two AML cell lines, one study; read-out: growth arrest in AML cell lines, IC50 range. How it is done: as §2, §1
The mark [2] stands for this setting: MOLM-13, Table 3 (second study), dose range of 2 nM to 10000 nM.

T1 sequence (Q02127 whole entry): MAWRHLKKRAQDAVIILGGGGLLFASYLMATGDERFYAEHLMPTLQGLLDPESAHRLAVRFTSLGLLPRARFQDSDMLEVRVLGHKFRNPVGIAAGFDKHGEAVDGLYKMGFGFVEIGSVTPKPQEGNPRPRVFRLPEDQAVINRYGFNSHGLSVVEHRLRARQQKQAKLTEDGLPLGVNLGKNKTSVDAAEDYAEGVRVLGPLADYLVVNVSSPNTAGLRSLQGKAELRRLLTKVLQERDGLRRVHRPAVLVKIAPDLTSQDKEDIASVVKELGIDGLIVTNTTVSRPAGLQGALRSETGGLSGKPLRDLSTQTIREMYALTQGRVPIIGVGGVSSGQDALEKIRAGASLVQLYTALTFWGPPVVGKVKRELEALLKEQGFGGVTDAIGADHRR

Regarding `CCOc1ccc(-c2cc(F)c(-c3cc(C(=O)O)c4cc(F)ccc4n3)c(F)c2)cc1` [Cpd17, 2-(4′-ethoxy-3,5-difluoro-[1,1′-biphenyl]-4-yl)-6-fluoroquinoline-4-carboxylic acid], the pIC50 at h-DHODH is 8.21; with MOLM13 cell line (setting [2]), 7.37.
Consider `CCOc1ccc(-c2ccc(-c3cc(C(=O)O)c4cc(F)ccc4n3)cc2Cl)cc1` [Cpd19, 2-(2-chloro-4′-ethoxy-[1,1′-biphenyl]-4-yl)-6-fluoroquinoline-4-carboxylic acid], for which the pIC50 on h-DHODH was 8.96; in the assay with MOLM13 cell line (setting [2]), over 8.70.
For `CCCCOc1cccc(-c2ccc(-c3cc(C(=O)O)c4cc(F)ccc4n3)c(C)c2)c1` [Cpd22, 2-(3′-butoxy-3-methyl-[1,1′-biphenyl]-4-yl)-6-fluoroquinoline-4-carboxylic acid] the same measures were over 9.29 and 7.47.
For the molecule `CCCCOc1cccc(-c2cc(F)c(-c3cc(C(=O)O)c4cc(F)ccc4n3)cc2F)c1` [Cpd11, 2-(3′-butoxy-2,5-difluoro-[1,1′-biphenyl]-4-yl)-6-fluoroquinoline-4-carboxylic acid], the pIC50 at h-DHODH was over 9.29.
Consider `CCOc1cccc(-c2ccc(-c3cc(C(=O)O)c4cc(F)ccc4n3)cc2F)c1` [Cpd2, 2-(3′-ethoxy-2-fluoro-[1,1′-biphenyl]-4-yl)-6-fluoroquinoline-4-carboxylic acid], for which the pIC50 was over 9.30 at h-DHODH and 7.80 in the assay with MOLM13 cell line (setting [2]).
Take `CCOc1ccc(-c2ccc(-c3cc(C(=O)O)c4cc(F)ccc4n3)c(F)c2)cc1` [Cpd9, 2-(4′-ethoxy-3-fluoro-[1,1′-biphenyl]-4-yl)-6-fluoroquinoline-4-carboxylic acid]: on h-DHODH, the pIC50 was 8.26.
For `CCOc1ccc(-c2ccc(-c3cc(C(=O)O)c4cc(F)ccc4n3)c(OC)c2)cc1` [Cpd23, 2-(4′-ethoxy-3-methoxy-[1,1′-biphenyl]-4-yl)-6-fluoroquinoline-4-carboxylic acid], the pIC50 at h-DHODH was 7.80; with MOLM13 cell line (setting [2]), 6.27.
Regarding `CCOc1ccc(-c2ccc(-c3cc(C(=O)O)c4cc(F)ccc4n3)c(C)c2)cc1` [Cpd21, 2-(4′-ethoxy-3-methyl-[1,1′-biphenyl]-4-yl)-6-fluoroquinoline-4-carboxylic acid], the pIC50 was 7.94 on h-DHODH and 6.27 with MOLM13 cell line (setting [2]).
For `CCOc1cccc(-c2ccc(-c3cc(C(=O)O)c4cc(F)ccc4n3)c(F)c2)c1` [Cpd10, 2-(3′-ethoxy-3-fluoro-[1,1′-biphenyl]-4-yl)-6-fluoroquinoline-4-carboxylic acid] the same measures were 9.15 and over 8.70.
For `CCOc1ccc(-c2ccc(-c3cc(C(=O)O)c4cc(F)ccc4n3)cc2C)cc1` [Cpd13, 2-(4′-ethoxy-2-methyl-[1,1′-biphenyl]-4-yl)-6-fluoroquinoline-4-carboxylic acid] the same measures were 8.82 and over 8.70.
For `CCOc1ccc(-c2ccc(-c3cc(C(=O)O)c4cc(F)ccc4n3)cc2F)cc1` [Cpd1, 2-(4′-ethoxy-2-fluoro-[1,1′-biphenyl]-4-yl)-6-fluoroquinoline-4-carboxylic acid], the pIC50 at h-DHODH was 8.61; in the assay with OCI-AML3 cell line it was 7.71; in the assay on MOLM13 cell line (MOLM-13, 96 hours, Table 2 (one study)) it was 7.84; in the assay on MOLM13 cell line (setting [2]), 7.89; in assay [1], 7.71 to 7.84.
Take `CCOc1cccc(-c2ccc(-c3cc(C(=O)O)c4cc(F)ccc4n3)cc2Cl)c1` [Cpd20, 2-(2-chloro-3′-ethoxy-[1,1′-biphenyl]-4-yl)-6-fluoroquinoline-4-carboxylic acid]: the pIC50 on h-DHODH was 9.22; in the assay with MOLM13 cell line (setting [2]), over 8.70.
Regarding `CCOc1ccc(-c2cc(F)c(-c3cc(C(=O)O)c4cc(F)ccc4n3)cc2F)cc1` [Cpd7, 2-(4′-ethoxy-2,5-difluoro-[1,1′-biphenyl]-4-yl)-6-fluoroquinoline-4-carboxylic acid], the pIC50 was 8.85 on h-DHODH and over 8.70 in the assay with MOLM13 cell line (setting [2]).
The corresponding values for `O=C(O)c1cc(-c2ccc(-c3ccccc3)c(F)c2)nc2ccc(F)cc12` [Cpd4] are 9.14 and 7.39.
For `CCOc1ccc(-c2ccc(-c3cc(C(=O)O)c4cc(F)ccc4n3)c(Cl)c2)cc1` [Cpd24, 2-(3-chloro-4′-ethoxy-[1,1′-biphenyl]-4-yl)-6-fluoroquinoline-4-carboxylic acid] the same measures were 7.65 and 6.33.
As for `CCCCOc1cccc(-c2ccc(-c3cc(C(=O)O)c4cc(F)ccc4n3)cc2C)c1` [Cpd25, 2-(3′-butoxy-2-methyl-[1,1′-biphenyl]-4-yl)-6-fluoroquinoline-4-carboxylic acid], the values for the pIC50 on h-DHODH and with MOLM13 cell line (setting [2]) were over 9.29 and over 8.70, respectively.
As to `O=C(O)c1cc(-c2ccc(-c3ccccc3F)c(F)c2)nc2ccc(F)cc12` [Cpd5, 2-(2,2′-difluoro-[1,1′-biphenyl]-4-yl)-6-fluoroquinoline-4-carboxylic acid], the pIC50 is 8.78 at h-DHODH and 7.85 in the assay with MOLM13 cell line (setting [2]).
For `CCOc1ccc(-c2ccc(-c3cc(C(=O)O)c4cc(F)ccc4n3)cc2OC)cc1` [Cpd15, 2-(4′-ethoxy-2-methoxy-[1,1′-biphenyl]-4-yl)-6-fluoroquinoline-4-carboxylic acid] the same measures were 8.38 and over 8.70.
`CCCCOc1cccc(-c2ccc(-c3cc(C(=O)O)c4cc(F)ccc4n3)cc2F)c1` [Cpd3, 2-(3′-butoxy-2-fluoro-[1,1′-biphenyl]-4-yl)-6-fluoroquinoline-4-carboxylic acid]: the pIC50 is over 9.30 at h-DHODH and 7.80 in the assay on MOLM13 cell line (setting [2]).
On to `CCOc1cccc(-c2ccc(-c3cc(C(=O)O)c4cc(F)ccc4n3)cc2C)c1` [Cpd14], for which the pIC50 on h-DHODH is 8.85; in the assay on MOLM13 cell line (setting [2]), over 8.70.
As for `CCCCOc1cccc(-c2ccc(-c3cc(C(=O)O)c4cc(F)ccc4n3)c(OC)c2)c1` [Cpd26, 2-(3′-butoxy-3-methoxy-[1,1′-biphenyl]-4-yl)-6-fluoroquinoline-4-carboxylic acid], the pIC50 was 9.15 on h-DHODH and 7.96 with MOLM13 cell line (setting [2]).
For `CCOc1cccc(-c2cc(F)c(-c3cc(C(=O)O)c4cc(F)ccc4n3)cc2F)c1` [Cpd8, 2-(3′-ethoxy-2,5-difluoro-[1,1′-biphenyl]-4-yl)-6-fluoroquinoline-4-carboxylic acid] the same measures were over 9.29 and over 8.70.
The corresponding values for `CCCCOc1cccc(-c2ccc(-c3cc(C(=O)O)c4cc(F)ccc4n3)c(F)c2)c1` [Cpd12, 2-(3′-butoxy-3-fluoro-[1,1′-biphenyl]-4-yl)-6-fluoroquinoline-4-carboxylic acid] are 9.15 and over 8.70.
With `CCOc1cccc(-c2cc(F)c(-c3cc(C(=O)O)c4cc(F)ccc4n3)c(F)c2)c1` [Cpd18], the pIC50 was 8.92 on h-DHODH and over 8.70 in the assay with MOLM13 cell line (setting [2]).
The corresponding values for `CCNc1ccc(-c2ccc(-c3cc(C(=O)O)c4cc(F)ccc4n3)cc2F)cc1` [Cpd6, 2-(4′-(ethylamino)-2-fluoro-[1,1′-biphenyl]-4-yl)-6-fluoroquinoline-4-carboxylic acid] are 8.87 and over 8.70.
As for `CCCCOc1cccc(-c2ccc(-c3cc(C(=O)O)c4cc(F)ccc4n3)c(Cl)c2)c1` [Cpd27], the pIC50 was over 9.29 on h-DHODH and 7.80 in the assay on MOLM13 cell line (setting [2]).
`CCOc1cccc(-c2ccc(-c3cc(C(=O)O)c4cc(F)ccc4n3)cc2OC)c1` [Cpd16, 2-(3′-ethoxy-2-methoxy-[1,1′-biphenyl]-4-yl)-6-fluoroquinoline-4-carboxylic acid]: the pIC50 on h-DHODH was 8.89; in the assay with MOLM13 cell line (setting [2]), over 8.70.

As a reminder, the pIC50 is the IC50 on a negative log10 scale, so that one unit is a factor of ten.
